This note sets out measurements from patent US10988505B2.

The term pEC50 denotes −log10 of the EC50, conventionally taken in molar units. In general, pKi refers to the Ki on a negative log10 scale, so that one unit is a factor of ten.

The subject of one assay is X31 H3N2 influenza virus. The experiment in a line: Influenza virus replication X31 in Calu-3 cells (viral plaque assay). The assay is classed as cell-based. The note with it: Calu-3 human bronchial epithelial cells, 48 h, read-out: calu3_x31_H3N2 EC50 (avg).
The target in assay [1] is recombinant human matriptase (Homo sapiens (Human), UniProt Q9Y5Y6). The assay is described as follows: Matriptase inhibition, Ki determination. The following applies: purified recombinant human matriptase, Boc-Gln-Ala-Arg-AMC substrate, pH 7.4. The assay is classed as biochemical.
The next assay deals with cartilage damage. The assay is described as follows: Osteoarthritis (OA) model, DMM surgery. The assay is classed as in vivo, C57BL/6J mice. The note with it: DMM mice, 5 microlitre intraarticular injections of 10 mg/ml in saline on days 7 and 28, scored day 56. The protocol: The ability of the tested compound to protects against in vivo aggrecan loss in an osteoarthritis (OA) model was evaluated as described by Litherland G J. et al. Arthritis Rheumatol 2014; 66:2175-87.
OA was induced in C57BL/6J mice following destabilization of the medial meniscus (DMM) surgery. Mice received 5 microlitre intraarticular injections of either saline or Compound 1 (10 mg/ml in saline) on days 7 and 28 post surgery. At day 56 post-surgery, mice were killed, knee joints isolated and fixed overnight in 7% formaldehyde in PBS. Joints were decalcified in EDTA in PBS for 10 days and then wax embedded. Consecutive sections (6 μm) were stained with safranin 0 with hematoxylin counterstaining and then cartilage damage graded (by two blinded, independent observers) according to a published grading system [Litherland, 2014]: 0 (normal) to 6 (vertical clefts/erosion to the calcified cartilage extending to […] of the articular surface). Bars show the mean+/−SD of the highestscores in the medial tibial and femoral condyles for each joint. […] The results are depicted in FIG. 1.
**P<0.01 for the control and ***P<0.001 for Compound 1, by Kruskal-Wallis test with Dunn's multiple comparison test.

Molecules are shown by their SMILES. pEC50, pKi: −log10 of the molar value.

Sequence of recombinant human matriptase (Q9Y5Y6 615-855, other chains not shown): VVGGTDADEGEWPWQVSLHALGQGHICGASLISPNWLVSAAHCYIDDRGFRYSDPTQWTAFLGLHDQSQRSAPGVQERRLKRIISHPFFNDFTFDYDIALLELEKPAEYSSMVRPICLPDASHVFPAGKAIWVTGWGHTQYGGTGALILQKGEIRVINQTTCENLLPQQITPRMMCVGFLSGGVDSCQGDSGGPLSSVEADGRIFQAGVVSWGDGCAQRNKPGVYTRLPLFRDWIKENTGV

As to `C[C@H](NC(=O)[C@H](CCC(N)=O)NC(=O)[C@@H](N)CCCNC(=N)N)C(=O)N[C@@H](CCCNC(=N)N)C(=O)c1nc2ccccc2s1` [Comparative #1, reference compound], the pEC50 with X31 H3N2 influenza virus is 5.11. With `CC(=O)N[C@@H](CCC(N)=O)C(=O)N[C@@H](Cc1ccccc1)C(=O)N[C@@H](CCCNC(=N)N)C(=O)c1nc2ccccc2s1` [Example 3], in the assay on X31 H3N2 influenza virus, the pEC50 is 7.47.

Take `N=C(N)NCCCCC(=O)N[C@@H](CCC(N)=O)C(=O)N[C@@H](Cc1ccccc1)C(=O)N[C@@H](CCCNC(=N)N)C(=O)c1nc2ccccc2s1` [Example 1]: the pKi in assay [1] was 9.87. For the same molecule, in the assay with X31 H3N2 influenza virus, the pEC50 was 7.68. Moreover, the cartilage damage score entry in the assay with cartilage damage is listed as “decreased the cartilage damage score”. On to `C[C@H](NC(=O)[C@@H](N)CCC(N)=O)C(=O)N[C@@H](CCCNC(=N)N)C(=O)c1nc2ccccc2s1` [Comparative #2, reference compound], for which the negative-log Ki (pKi) in assay [1] is 10.06. Besides, the pEC50 in the assay on X31 H3N2 influenza virus is 5.24.
